Source: ChEMBL document CHEMBL4814023, “The dual inhibition against the activity and expression of tyrosine phosphatase PRL-3 from a rhodanine derivative” (Bioorg Med Chem Lett, 2021)
pIC50: −log10 of the molar value. Calls of active or inactive are those of the source. No cut-off for these calls is given here.

Legend:
SW480 [1] = experiment: Antiproliferative activity against human SW480 cells assessed as reduction in cell viability at 1 to 100 uM incubated for 24 to 72 hrs by MTT assay; type: functional, cell-based; settings: dose 1-100 µM, time 24-72 hrs
HCT-116 [2] = experiment: Antiproliferative activity against human HCT116 cells assessed as reduction in cell viability at 1 to 100 uM incubated for 24 to 72 hrs by MTT assay; type: functional, cell-based; settings: dose 1-100 µM, time 24-72 hrs
SW480 [3] = experiment: cells; settings: Homo sapiens
HCT-116 [4] = experiment: cells; settings: Homo sapiens
[5] = target: T1, Protein tyrosine phosphatase type IVA 3 (Homo sapiens, UniProt O75365); experiment: Inhibition of human brain PRL-3 (1 to 168 residues) expressed in Escherichia coli BL21(DE3) cells using DiFMUP as substrate incubated for 1 hr by fluorimetric assay
T1 sequence (O75365 whole entry, the tested form may be a part): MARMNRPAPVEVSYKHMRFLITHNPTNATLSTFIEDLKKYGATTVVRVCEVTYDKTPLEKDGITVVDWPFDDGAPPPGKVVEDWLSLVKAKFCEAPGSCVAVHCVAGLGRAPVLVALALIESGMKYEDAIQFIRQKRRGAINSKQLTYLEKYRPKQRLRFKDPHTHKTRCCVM

SW480 [6] = experiment: Antiproliferative activity against human SW480 cells assessed as reduction in cell viability at 1 to 100 uM by MTT assay; type: functional, cell-based; settings: dose 1-100 µM, time 24-72 hrs, TDE = time-dependent effect
SW480 [7] = experiment: Induction of apoptosis in human SW480 cells assessed as decrease in number of cells at 5 to 50 uM after 24 hrs by AO/EB staining based fluorescence inverted microscopic method; type: functional, cell-based; settings: dose 5-50 µM
SW480 [8] = experiment: Induction of apoptosis in human SW480 cells assessed as change in cell shape at 5 to 50 uM after 24 hrs by AO/EB staining based fluorescence inverted microscopic method; type: functional; settings: dose 5-50 µM
SW480 [9] = experiment: Induction of apoptosis in human SW480 cells assessed as increase in number of cells with red dye at 5 to 50 uM after 24 hrs by AO/EB staining based fluorescence inverted microscopic method; type: functional, cell-based; settings: dose 5-50 µM
SW480 [10] = experiment: Induction of apoptosis in human SW480 cells assessed as early apoptotic cells at 5 uM incubated for 24 hrs by Annexin V-FITC/propidium iodide staining based flow cytometry analysis (reference value: 0.52%); type: functional
SW480 [11] = experiment: Induction of apoptosis in human SW480 cells assessed as late apoptotic cells at 5 uM incubated for 24 hrs by Annexin V-FITC/propidium iodide staining based flow cytometry analysis (reference value: 2.58%); type: functional
SW480 [12] = experiment: Induction of apoptosis in human SW480 cells assessed as early apoptotic cells at 10 uM incubated for 24 hrs by Annexin V-FITC/propidium iodide staining based flow cytometry analysis (reference value: 0.52%); type: functional
SW480 [13] = experiment: Induction of apoptosis in human SW480 cells assessed as late apoptotic cells at 10 uM incubated for 24 hrs by Annexin V-FITC/propidium iodide staining based flow cytometry analysis (reference value: 2.58%); type: functional
SW480 [14] = experiment: Induction of apoptosis in human SW480 cells assessed as early apoptotic cells at 25 uM incubated for 24 hrs by Annexin V-FITC/propidium iodide staining based flow cytometry analysis (reference value: 0.52%); type: functional
SW480 [15] = experiment: Induction of apoptosis in human SW480 cells assessed as late apoptotic cells at 25 uM incubated for 24 hrs by Annexin V-FITC/propidium iodide staining based flow cytometry analysis (reference value: 2.58%); type: functional
SW480 [16] = experiment: Induction of apoptosis in human SW480 cells assessed as early apoptotic cells at 50 uM incubated for 24 hrs by Annexin V-FITC/propidium iodide staining based flow cytometry analysis (reference value: 0.52%); type: functional
SW480 [17] = experiment: Induction of apoptosis in human SW480 cells assessed as late apoptotic cells at 50 uM incubated for 24 hrs by Annexin V-FITC/propidium iodide staining based flow cytometry analysis (reference value: 2.58%); type: functional
SW480 [18] = experiment: Down regulation of PRL-3 expression in human SW480 cells by Western blot analysis; type: functional, cell-based; settings: dose 5-50 µM
SW480 [19] = experiment: Effect on TCPTP expression in human SW480 cells at 5 to 50 uM by Western blot analysis; type: functional, cell-based; settings: dose 5-50 µM
SW480 [20] = experiment: Effect on PTP1B expression in human SW480 cells at 5 to 50 uM by Western blot analysis; type: functional, cell-based; settings: dose 5-50 µM
SW480 [21] = experiment: Effect on SHP-1 expression in human SW480 cells at 5 to 50 uM by Western blot analysis; type: functional, cell-based; settings: dose 5-50 µM
SW480 [22] = experiment: Effect on SHP-2 expression in human SW480 cells at 5 to 50 uM by Western blot analysis; type: functional, cell-based; settings: dose 5-50 µM
SW480 [23] = experiment: Antiproliferative activity against human SW480 cells assessed as reduction in cell viability incubated for 24 to 72 hrs by MTT assay; settings: dose 1-100 µM, time 24-72 hrs
[24] = target: T1, Protein tyrosine phosphatase type IVA 3; experiment: Inhibition of PRL-3 (unknown origin) using DiFMUP as substrate incubated for 1 hr

pIC50 (SW480 [3])	pIC50 (HCT-116 [4])	Structure (SMILES)	Activity (SW480 [1])	Activity (HCT-116 [2])	further results
4.10	< 4.00	Cn1ccnc1/C=C1\SC(=S)NC1=O	inactive	inactive	
4.07	4.77	O=C1NC(=S)S/C1=C\c1c(F)cc(F)cc1F	inactive	inactive	
4.50	< 4.00	N#Cc1cc(/C=C2\SC(=S)NC2=O)ccc1F	inactive	inactive	

The remaining lines, values behind:

Structure (SMILES)	pIC50 (SW480 [3])	pIC50 (HCT-116 [4])	Activity (SW480 [1])	Activity (HCT-116 [2])	further results
COc1cc(O)c2c(=O)cc(-c3ccc(OC)c(-c4c(O)cc(O)c5c(=O)cc(-c6ccc(O)cc6)oc45)c3)oc2c1 [GINKGETIN]					pIC50 [5]: 4.59
O=C1NC(=S)S/C1=C\c1cc(Cl)ccc1C(F)(F)F	5.18	4.13			Activity (SW480 [6]): Tde; Activity (SW480 [7]): Active; Activity (SW480 [8]): Active; Activity (SW480 [9]): Active; Activity (SW480 [10]): 0.92%; Activity (SW480 [11]): 4.13%; Activity (SW480 [12]): 1.47%; Activity (SW480 [13]): 5.91%; Activity (SW480 [14]): 2.9%; Activity (SW480 [15]): 6.23%; Activity (SW480 [16]): 4.77%; Activity (SW480 [17]): 11.72%; Activity (SW480 [18]): Dose-Dependent Effect; Activity (SW480 [19]): inactive; Activity (SW480 [20]): inactive; Activity (SW480 [21]): inactive; Activity (SW480 [22]): inactive; Activity (SW480 [23]): Dose-Dependent Effect
O=C1NC(=S)S/C1=C\c1cc(Cl)ccc1Cl	4.18	4.77	inactive	inactive	pIC50 [24]: 4.58
O=C1NC(=S)S/C1=C\c1ccc(O)c(C(=O)O)c1	< 4.00	4.00	inactive	inactive	
COc1ccc(-c2cc(=O)c3c(O)cc(O)c(-c4cc(-c5cc(=O)c6c(O)cc(OC)cc6o5)ccc4OC)c3o2)cc1 [SCIADOPITISIN]					pIC50 [5]: 4.34
